Data taken from US7919101B2 (priority 2008, dated 2011).
Read-outs that look alike come from different tables or passages of the source. Residues, ends and D or L forms follow the SMILES beside them.

Tests used:
[1] = tested on: HIV-1 RU570 (clade G, R5); experiment: Inhibition of infection by primary HIV-1 isolate RU570; format: cell-based
Procedure: Inhibitory activity of fusion/entry inhibitors on infection by a primary HIV-1 isolate was determined as previously described (Jiang S et al. Antimicrob Agents Chemother 48:4349-4359, 2004). Peripheral blood mononuclear cells (PBMCs) were isolated from the blood of healthy donors by standard density gradient centrifugation using Histopaque-1077 (Sigma). The cells were plated in 75 cm^2 plastic flasks and incubated at 37° C. for 2 hrs. The nonadherent cells were collected and resuspended at 5×10^6 in 10 ml RPMI-1640 medium containing 10% FBS, 5 μg/ml PHA (phytohemagglutinin) and 100 U/ml IL-2 (Sigma), followed by incubation at 37° C. for 3 days. The PHA-stimulated cells were infected with a primary HIV-1 isolates at 0.01 MOI in the absence or presence of a compound at graded concentrations. Culture media were changed every 3 days. The supernatants were collected 7 days post-infection and tested for p24 antigen by ELISA as described above. The percent inhibition of p24 production and EC50 values were calculated as described above.
(§1) 4. Synergy analysis. […] In all analyses, HIV fusion/entry inhibitors were assumed to act noncompetitively, which led to a more conservative estimate of synergy. CI values<1 and >1 indicate synergy and antagonism, respectively. Dose reductions were calculated as the compound concentrations required for inhibition of HIV-1 replication when the compound was used alone and in combination. The statistic analysis was performed by the One-Way Analysis of Variance (One-Way ANOVA) method using Origin 6.1 software.

[2] = tested on: HIV-1 BaL (subtype B, R5)
Procedure: (§2) 2. Inhibition of HIV infection as measured by luciferase assay. The inhibitory activity of fusion/entry inhibitors on HIV infection in TZM-bl cells was determined by using a luciferase assay (Wei X et al. Antimicrob. Agents Chemother. 46:1896-1905, 2002). Briefly, 50 μl of a compound at graded concentration in triplicate were incubated with an equal volume of an HIV-1 isolate at 0.01 multiplicity of infection (MOI) at 37° C. for 30 min, followed by addition of the mixture to 100 μl TZM-bl cells (1×10^5/ml) that were pre-cultured in a 96-well plate at 37° C. overnight. After further culture at 37° C. for 3 days, the cells were harvested and lyzed with 50 μl lysing reagent. The luciferase activity was analyzed using a luciferase kit (Promega Corp.) and a luminometer (Model: Ultra […], Tecan) according to the manufacture's instruction. The percent inhibition of cell fusion by a compound as well as EC50 and EC90 values were calculated using the software CalcuSyn.
(§3) 3. Inhibition of HIV replication as measured by p24 antigen production. The inhibitory activity of fusion/entry inhibitors on HIV-1 infection as measured by p24 antigen production was determined as previously described (Zhao Q et al. AIDS Res Hum Retroviruses 18:989-997, 2002). In brief, 1×10^4 MT-2 cells were infected with an HIV-1 strain (100 TCID50) in 200 μl RPMI 1640 medium containing 10% FBS in the presence or absence of testing compounds at graded concentrations overnight. Then the culture supernatants were removed and fresh media containing no testing compounds were added. On the fourth day post-infection, 100 μl of culture supernatants were collected from each well, mixed with equal volumes of 5% Triton X-100 and assayed for p24 antigen, which was quantitated by ELISA. Briefly, wells of polystyrene plates were coated with HIV immunoglobulin (HIVIG, prepared from plasma of HIV-seropositive donors with high neutralizing titers against HIV-1IIIB), in 0.085 M carbonate-bicarbonate buffer (pH 9.6) at 4° C. overnight, followed by washes with washing buffer (0.01 M PBS containing 0.05% Tween-20) and blocking with PBS containing 1% dry fat-free milk. Virus lysates were added to the wells and incubated at 37° C. for 1 hr. […] Reactions were terminated by addition of 1N H2SO4. Absorbance at 450 nm was recorded in an ELISA reader (Ultra 384, TECAN). Recombinant protein p24, purchased from US Biological, was included for establishing standard dose response curves. Each sample was tested in triplicate. The percentage of inhibition of p24 production was calculated as previously described (Neurath A R et al. BMC Infect Dis 2:6, 2002).
as §1

[3] = tested on: HIV-1 IIIB (subtype B, X4)
Procedure: as §2, §3, §1

[4] = tested on: HIV-1 NL4-3(36G)V38A/N42D
Procedure: as §2, §3, §1

HIV-1 NL4-3(36G)V38A = tested on: HIV-1 NL4-3(36G)V38A
Procedure: as §2, §3, §1

[5] = tested on: HIV-1 NL4-3(36G)V38E/N42S
Procedure: as §2, §3, §1

[6] = tested on: viruses that are resistant to T-20; details: viruses resistant to T-20; cited from earlier work
[7] = cited from earlier work
[8] = RU570 (G, R5) primary isolate, peptide alone, read-out: EC50 alone
[9] = RU570, T-20+T-1249+T-1144 4:1:1
[10] = RU570, T-20 combined with T-1144
[11] = read-out: EC50 alone, Bal (B, R5), peptide alone
[12] = IIIB, T-20+T-1249+T-1144 16:4:1
[13] = IIIB, T-20 combined with T-1144
[14] = read-out: EC50 alone, IIIB (B, X4), peptide alone
[15] = read-out: EC50 alone, peptide alone
[16] = read-out: EC50 in mixture, T-20+T-1249+T-1144 80:1:1
[17] = read-out: EC50 in mixture, T-20 combined with T-1144, ratios 80:1:1
[18] = read-out: EC50 in mixture, T-20 combined with T-1249, ratios 80:1:1

For CC[C@H](C)[C@H](NC(=O)[C@H](C)NC(=O)[C@H](CCCNC(=N)N)NC(=O)[C@H](CC(=O)O)NC(=O)[C@H](Cc1c[nH]c2ccccc12)NC(=O)[C@H](C)NC(=O)[C@H](CCC(=O)O)NC(=O)[C@H](Cc1c[nH]c2ccccc12)NC(=O)[C@@H](NC(=O)[C@@H](NC(C)=O)[C@@H](C)O)[C@@H](C)O)C(=O)N[C@@H](C)C(=O)N[C@@H](CCC(=O)O)C(=O)N[C@@H](Cc1ccc(O)cc1)C(=O)N[C@@H](C)C(=O)N[C@@H](C)C(=O)N[C@@H](CCCNC(=N)N)C(=O)N[C@H](C(=O)N[C@@H](CCC(=O)O)C(=O)N[C@@H](C)C(=O)N[C@@H](CC(C)C)C(=O)N[C@@H](CC(C)C)C(=O)N[C@@H](CCCNC(=N)N)C(=O)N[C@@H](C)C(=O)N[C@@H](CC(C)C)C(=O)N[C@@H](CCC(N)=O)C(=O)N[C@@H](CCC(=O)O)C(=O)N[C@@H](CCC(N)=O)C(=O)N[C@@H](CCC(N)=O)C(=O)N[C@@H](CCC(=O)O)C(=O)N[C@@H](CCCCN)C(=O)N[C@@H](CC(N)=O)C(=O)N[C@@H](CCC(=O)O)C(=O)N[C@@H](C)C(=O)N[C@@H](C)C(=O)N[C@@H](CC(C)C)C(=O)N[C@@H](CCCNC(=N)N)C(=O)N[C@@H](CCC(=O)O)C(=O)N[C@@H](CC(C)C)C(N)=O)[C@@H](C)CC [T-1144] (Ac-TTWEAWDRAIAEYAARIEALLRALQEQQEKNEAALREL-NH2; N-terminus and C-terminus assumed), the EC50 [1, 8] was 24.2 nM, the Dose reduction [1, 9] was 21.23 fold and the Dose reduction [1, 10] was 18.62 fold. It also gave a Dose reduction ([2]; Bal, T-20+T-1249+T-1144 2:1:1) of 209.00 fold, a Dose reduction ([2]; Bal, T-20 combined with T-1144) of 19.90 fold and an EC50 [2, 11] of 4.18 nM. For the same compound, the Dose reduction [3, 12] was 99.00 fold, the Dose reduction [3, 13] was 7.98 fold and the EC50 [3, 14] was 4.95 nM. For the same compound, the Dose reduction ([4]; T-20+T-1249+T-1144 80:1:1) was 9.33 fold, the Dose reduction ([4]; T-20 combined with T-1144) was 1.82 fold and the EC50 [4, 15] was 4.57 nM. For the same compound, the Dose reduction (HIV-1 NL4-3(36G)V38A; T-20+T-1249+T-1144 80:1:1) was 37.60 fold, the Dose reduction (HIV-1 NL4-3(36G)V38A; T-20 combined with T-1144) was 16.35 fold and the EC50 (HIV-1 NL4-3(36G)V38A; [15]) was 3.76 nM. It also gave a Dose reduction ([5]; T-20+T-1249+T-1144 3000:200:1) of 37.21 fold, a Dose reduction ([5]; T-20 combined with T-1144) of 4.17 fold and an EC50 [5, 15] of 5.21 nM. For the same compound, the “activity relative to T-20” value [6] was “thousands fold more active than T-20” and the pharmacokinetic properties improved ([7]; in vivo) was “up to 100 fold”.
For enfuvirtide, the EC50 [1, 8] was 38.4 nM, the Dose reduction [1, 9] was 8.47 fold and the EC50 ([1]; RU570, T-20+T-1249+T-1144 4:1:1, read-out: EC50 in mixture) was 4.54 nM. The Dose reduction [1, 10] was 7.41 fold, the EC50 ([1]; RU570, T-20 combined with T-1144, ratios 4:1:1, read-out: EC50 in mixture) was 5.19 nM and the EC50 ([1]; RU570, T-20 combined with T-1249, ratios 4:1:1, read-out: EC50 in mixture) was 5.98 nM. The Dose reduction ([2]; Bal, T-20+T-1249+T-1144 2:1:1) was 280.67 fold, the Dose reduction ([2]; Bal, T-20 combined with T-1144) was 20.05 fold and the Dose reduction ([2]; Bal, T-20 combined with T-1249) was 11.53 fold. The EC50 [2, 11] was 8.42 nM, the EC50 ([2]; read-out: EC50 in mixture, Bal, T-20+T-1249+T-1144 2:1:1) was 0.03 nM and the EC50 ([2]; read-out: EC50 in mixture, Bal, T-20 combined with T-1144, ratios 2:1:1) was 0.42 nM. It also gave an EC50 ([2]; read-out: EC50 in mixture, Bal, T-20 combined with T-1249, ratios 2:1:1) of 0.73 nM, a Dose reduction [3, 12] of 71.04 fold and a Dose reduction [3, 13] of 5.11 fold. The Dose reduction ([3]; IIIB, T-20 combined with T-1249) was 3.32 fold, the EC50 [3, 14] was 50.4 nM and the EC50 ([3]; read-out: EC50 in mixture, IIIB, T-20+T-1249+T-1144 16:4:1) was 0.71 nM. It also gave an EC50 ([3]; read-out: EC50 in mixture, IIIB, T-20 combined with T-1144, ratios 16:4:1) of 9.88 nM, an EC50 ([3]; read-out: EC50 in mixture, IIIB, T-20 combined with T-1249, ratios 16:4:1) of 15.2 nM and a Dose reduction ([4]; T-20+T-1249+T-1144 80:1:1) of 67.90 fold. For the same compound, the Dose reduction ([4]; T-20 combined with T-1144) was 13.17 fold, the Dose reduction ([4]; T-20 combined with T-1249) was 11.56 fold and the EC50 [4, 15] was 2650 nM. For the same compound, the EC50 [4, 16] was 39 nM, the EC50 [4, 17] was 201 nM and the EC50 [4, 18] was 229 nM. The Dose reduction (HIV-1 NL4-3(36G)V38A; T-20+T-1249+T-1144 80:1:1) was 37.76 fold, the Dose reduction (HIV-1 NL4-3(36G)V38A; T-20 combined with T-1144) was 16.78 fold and the Dose reduction (HIV-1 NL4-3(36G)V38A; T-20 combined with T-1249) was 23.03 fold. The EC50 (HIV-1 NL4-3(36G)V38A; [15]) was 313 nM, the EC50 (HIV-1 NL4-3(36G)V38A; [16]) was 8.29 nM and the EC50 (HIV-1 NL4-3(36G)V38A; [17]) was 18.6 nM. The EC50 (HIV-1 NL4-3(36G)V38A; [18]) was 13.6 nM, the Dose reduction ([5]; T-20+T-1249+T-1144 3000:200:1) was 24.12 fold and the Dose reduction ([5]; T-20 combined with T-1144) was 2.64 fold. The Dose reduction ([5]; T-20 combined with T-1249) was 13.51 fold, the EC50 [5, 15] was 9890 nM and the EC50 ([5]; read-out: EC50 in mixture, T-20+T-1249+T-1144 3000:200:1) was 410 nM. The EC50 ([5]; read-out: EC50 in mixture, T-20 combined with T-1144, ratios 3000:200:1) was 3750 nM, the EC50 ([5]; read-out: EC50 in mixture, T-20 combined with T-1249, ratios 3000:200:1) was 733 nM and the half-life in vivo ([7]; in the blood) was “about 2 hours”.
